Measured values from PubChem BioAssay AID248 (DTP/NCI, 2004).
Several values for one entry are separate records, joined by “and”; a condition that tells them apart may be missing. Equal values may be shown once. Toxic doses and inconclusive results are not listed. No stated cut-off is given here; in the data, active means T/C of 150% or more; inactive means T/C below 125%.

Test system: L1210 leukemia ip in BDF1 mice, survival T/C
Assay: NCI In Vivo Anticancer Drug Screen. Data for tumor model L1210 Leukemia (intraperitoneal) in B6D2F1 (BDF1) mice
Details: endpoint: mean survival time, higher = longer survival
Procedure, shortened: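 Each compound was tested against a transplantable tumor grown in mice. The endpoint was survival, with treated animals benchmarked against vehicle controls as a simple ratio.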

[1] = dose: 100.0 mg/kg/injection, schedule: Q01DX001 (ip), vehicle: saline
[2] = dose: 200.0 mg/kg/injection, schedule: Q01DX001 (ip), vehicle: saline
[3] = dose: 50.0 mg/kg/injection, schedule: Q04DX003 (ip), vehicle: Klucel (hydroxypropylcellulose) (HPC)
[4] = dose: 100.0 mg/kg/injection, schedule: Q01DX009 (ip), vehicle: Klucel (hydroxypropylcellulose) (HPC)
[5] = dose: 100.0 mg/kg/injection, schedule: Q04DX003 (ip), vehicle: Klucel (hydroxypropylcellulose) (HPC)
[6] = dose: 200.0 mg/kg/injection, schedule: Q01DX009 (ip), vehicle: Klucel (hydroxypropylcellulose) (HPC)
[7] = dose: 200.0 mg/kg/injection, schedule: Q04DX003 (ip), vehicle: Klucel (hydroxypropylcellulose) (HPC)

Measured: T/C

CN(C)N=Nc1ccccc1CO
inactive: dose: 1.0 mg/kg/injection, schedule: Q01DX009 (ip), vehicle: other 94 % of control | dose: 2.0 mg/kg/injection, schedule: Q01DX009 (ip), vehicle: other 103 % of control | dose: 4.0 mg/kg/injection, schedule: Q01DX009 (ip), vehicle: other 103 % of control | dose: 8.0 mg/kg/injection, schedule: Q01DX009 (ip), vehicle: other 103 % of control | dose: 25.0 mg/kg/injection, schedule: Q04DX003 (ip), vehicle: other 105 % of control | dose: 50.0 mg/kg/injection, schedule: Q04DX003 (ip), vehicle: other 120 % of control

N#Cc1ccc(Cl)c2c1C(=O)c1ccccc1C2=O
inactive: [1] 98 % of control | dose: 100.0 mg/kg/injection, schedule: Q01DX009 (ip), vehicle: saline 100 % of control | [2] 98 % of control | dose: 200.0 mg/kg/injection, schedule: Q01DX009 (ip), vehicle: saline 94 % of control | dose: 400.0 mg/kg/injection, schedule: Q01DX001 (ip), vehicle: saline 95 % of control | dose: 400.0 mg/kg/injection, schedule: Q01DX009 (ip), vehicle: saline 92 % of control

CCOC(=O)C(C[N+](C)(CC)CC)c1ccccc1 (stereo unspecified)
inactive: dose: 88.8 mg/kg/injection, schedule: Q01DX001 (ip), vehicle: carboxymethylcellulose (CMC) 97 % of control and 102 % of control | dose: 100.0 mg/kg/injection, schedule: Q01DX001 (ip), vehicle: carboxymethylcellulose (CMC) 113 % of control | dose: 133.0 mg/kg/injection, schedule: Q01DX001 (ip), vehicle: carboxymethylcellulose (CMC) 105 % of control and 114 % of control | dose: 200.0 mg/kg/injection, schedule: Q01DX001 (ip), vehicle: carboxymethylcellulose (CMC) 107 % of control and 118 % of control | dose: 300.0 mg/kg/injection, schedule: Q01DX001 (ip), vehicle: carboxymethylcellulose (CMC) 95 % of control and 104 % of control | dose: 400.0 mg/kg/injection, schedule: Q01DX001 (ip), vehicle: carboxymethylcellulose (CMC) 98 % of control

CCC[CH2][Pb]([CH2]CCC)([CH2]CCC)[n]1ccnc1
inactive: dose: 1.5 mg/kg/injection, schedule: Q01DX009 (ip), vehicle: Klucel (hydroxypropylcellulose) (HPC) 95 % of control | dose: 3.0 mg/kg/injection, schedule: Q01DX009 (ip), vehicle: Klucel (hydroxypropylcellulose) (HPC) 96 % of control | dose: 6.0 mg/kg/injection, schedule: Q01DX009 (ip), vehicle: Klucel (hydroxypropylcellulose) (HPC) 90 % of control | dose: 12.5 mg/kg/injection, schedule: Q04DX003 (ip), vehicle: Klucel (hydroxypropylcellulose) (HPC) 97 % of control | dose: 25.0 mg/kg/injection, schedule: Q04DX003 (ip), vehicle: Klucel (hydroxypropylcellulose) (HPC) 97 % of control | dose: 50.0 mg/kg/injection, schedule: Q01DX001 (ip), vehicle: saline 98 % of control | [3] 86 % of control | [1] 95 % of control | [2] 93 % of control

CCOC(=O)C(CCC(=O)O)NC(=O)OCc1ccccc1 (stereo unspecified)
inactive: [3] 94 % of control | [4] 101 % of control | [5] 94 % of control and 100 % of control | [6] 106 % of control | [7] 93 % of control

C(=C/c1ccc(/C=C/c2ccccc2)cc1)/c1ccccc1
inactive: [4] 98 % of control | [5] 98 % of control | [6] 93 % of control | [7] 104 % of control | dose: 400.0 mg/kg/injection, schedule: Q01DX009 (ip), vehicle: Klucel (hydroxypropylcellulose) (HPC) 95 % of control | dose: 400.0 mg/kg/injection, schedule: Q04DX003 (ip), vehicle: Klucel (hydroxypropylcellulose) (HPC) 90 % of control

CCC1CCCCN1CCNc1ccc(CO)c2sc3ccccc3c(=O)c12 (stereo unspecified)
inactive: dose: 50.0 mg/kg/injection, schedule: Q01DX009 (ip), vehicle: Klucel (hydroxypropylcellulose) (HPC) 101 % of control | [4] 115 % of control | [6] 120 % of control

Nc1ccc(S(=O)(=O)NCc2nccs2)cc1
inactive: dose: 5.0 mg/kg/injection, schedule: Q01DX001 (ip), vehicle: saline 102 % of control | dose: 10.0 mg/kg/injection, schedule: Q01DX001 (ip), vehicle: saline 100 % of control | dose: 20.0 mg/kg/injection, schedule: Q01DX001 (ip), vehicle: saline 100 % of control | dose: 40.0 mg/kg/injection, schedule: Q01DX001 (ip), vehicle: saline 102 % of control | dose: 80.0 mg/kg/injection, schedule: Q01DX001 (ip), vehicle: saline 100 % of control
